Source: patent publication US10093654B2, “Therapeutically active compounds and their methods of use” (Agios Pharmaceuticals, Inc., priority 2013, dated 2018)

Key:
[1] = system: cytochrome P450s and uridine diphosphate (UDP)-glucuronosyltransferase (UGTs); assay: Human enzyme phenotyping; assay type: in vitro ADME; conditions: all metabolite peaks at or below the limits of quantitation
[2] = system: advanced hematologic malignancies that harbor an IDH2 mutation; assay: Phase 1 clinical study, clinical activity (response to treatment); assay type: in vivo, human
Experimental: Subjects will have the extent of their disease assessed, including bone marrow biopsies and/or aspirates and peripheral blood, at screening, on Day 15, Day 29 and Day 57, and every 56 days thereafter while on study drug treatment, independent of dose delays and/or dose interruptions, and/or at any time when progression of disease is suspected. Response to treatment is determined by the Investigators based on modified International Working Group (IWG) response criteria for acute myelogenous leukemia (AML).
Serial blood and bone marrow sampling is evaluated during the clinical study to determine response to treatment based on modified IWG response criteria in AML.
Disease response to treatment is assessed through the evaluation of bone marrow aspirates and biopsies, along with complete blood counts and examination of peripheral blood films. Subjects have the extent of their disease assessed and recorded at screening, on Days 15, 29, and 57, every 56 days thereafter while on study drug treatment, independent of dose-delays and/or dose interruptions, and/or at any time when progression of disease is suspected. An assessment also is conducted at the End of Treatment visit for subjects who discontinue the study due to reasons other than disease progression.
Bone marrow aspirates and biopsies are to be obtained at screening, Day 15, Day 29, Day 57, every 56 days thereafter independent of dose delays and/or interruptions, at any time when progression of disease is suspected, and at the End of Treatment visit. Bone marrow aspirates and core sampling should be performed according to standard of care and analyzed at the local site's laboratory in accordance with the International Council for Standardization in Hematology (ICSH) Guidelines (Lee S H, et al. Int J Lab Hematol. 2008; 30(5):349-64). Bone marrow core biopsies and aspirate are to be evaluated for morphology, flow cytometry, and for karyotype to assess potential clinical activity. Aliquots of the bone marrow and/or peripheral blood blast cells also are evaluated at central laboratories for 2-HG levels, gene expression profiles, histone and DNA methylation patterns, and metabolomic profiling. Peripheral blood for the evaluation of leukemic blast cells is to be obtained at screening, Day 15, Day 29, Day 57, every 56 days thereafter independent of dose delays and/or interruptions, at any time when progression of disease is suspected, and at the End of Treatment visit. Cell counts and flow cytometry are used to assess the state of differentiation of blast cells collected from bone marrow and peripheral blood. Side scatter also is analyzed to determine the complexity of the blast cells in response to compound 1.
The following criteria outlined in Table 5 and Table 6 are used to assess response to treatment.

TF-1 IDH2 (R140Q) cells = assay: GM-CSF-independent growth in TF-1 IDH2 (R140Q) cells; assay type: cell-based; conditions: 1 μM for 7 days
IDH2 R140Q = assay: Phase 1 clinical study, inhibition of circulating plasma 2-HG, IDH2 R140Q patients; assay type: in vivo, human
[3] = system: TF-1 IDH2 (R140Q) mutant cells; assay: Differentiation block, EPO-induced expression in TF-1 IDH2 (R140Q) mutant cells; assay type: cell-based; conditions: when 2-HG levels fall below 1 mM
[4] = system: AMM7577-P2 (HuKemia® model); assay: Survival in mutant positive AML mouse model; conditions: Day 48-84
UGT1A1 = molecular target: T1, UGT1A1 (Homo sapiens, UniProt P22309); assay: UGT1A1 inhibition by genotype; assay type: in vitro ADME
T1 sequence (P22309 26-533): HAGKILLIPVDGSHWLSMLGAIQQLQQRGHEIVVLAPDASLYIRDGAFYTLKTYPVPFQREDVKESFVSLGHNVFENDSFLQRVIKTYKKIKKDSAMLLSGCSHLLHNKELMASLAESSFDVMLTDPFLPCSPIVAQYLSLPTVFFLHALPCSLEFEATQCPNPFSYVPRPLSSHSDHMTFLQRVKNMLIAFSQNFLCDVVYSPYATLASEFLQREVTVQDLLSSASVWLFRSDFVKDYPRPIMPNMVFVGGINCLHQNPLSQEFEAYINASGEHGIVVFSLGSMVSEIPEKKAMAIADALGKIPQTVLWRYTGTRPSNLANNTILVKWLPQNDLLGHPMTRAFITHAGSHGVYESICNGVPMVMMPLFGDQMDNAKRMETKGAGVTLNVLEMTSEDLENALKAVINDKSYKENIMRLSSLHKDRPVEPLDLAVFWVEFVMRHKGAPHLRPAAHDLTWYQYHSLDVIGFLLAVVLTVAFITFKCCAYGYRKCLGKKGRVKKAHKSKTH
Experimental: Its inhibition of the UGT1A1 *1/*28 and *28/*28 Gilbert's syndrome genotypes are evaluated.

CYP enzymes = assay: Time-dependent or metabolism-dependent inhibition of CYP enzymes; assay type: in vitro ADME, human
[5] = system: primary human IDH2 (R140Q) mutant AML cells; assay: Ex vivo treatment of primary human AML blast cells; assay type: cell-based; conditions: for percentage of blast cells: from 90%, 500, 1000, 5000 nM
From the text: Cells are counted at Days 3, 6, 9, and 13 and normalized to DMSO control.

U87MG IDH2 (R140Q) tumor = assay: PK/PD study in mouse xenograft model, tumor 2-HG; assay type: in vivo, female nude mice
human CYP3A4 = assay: CYP3A4 induction; assay type: in vitro ADME
CYP2C19 = CYP2C19 (Homo sapiens, UniProt P33261); assay: Direct inhibition of CYP2C19; assay type: in vitro ADME
[6] = system: IDH2 (R140Q) in TF-1 cells; assay: Histone hypermethylation, Western blot, TF-1 IDH2 (R140Q) cells; assay type: cell-based; conditions: Western blot; H3K4me3, H3K9me3, H3K27me3, H3K36me3

Sequence of CYP2C19 (P33261 whole entry): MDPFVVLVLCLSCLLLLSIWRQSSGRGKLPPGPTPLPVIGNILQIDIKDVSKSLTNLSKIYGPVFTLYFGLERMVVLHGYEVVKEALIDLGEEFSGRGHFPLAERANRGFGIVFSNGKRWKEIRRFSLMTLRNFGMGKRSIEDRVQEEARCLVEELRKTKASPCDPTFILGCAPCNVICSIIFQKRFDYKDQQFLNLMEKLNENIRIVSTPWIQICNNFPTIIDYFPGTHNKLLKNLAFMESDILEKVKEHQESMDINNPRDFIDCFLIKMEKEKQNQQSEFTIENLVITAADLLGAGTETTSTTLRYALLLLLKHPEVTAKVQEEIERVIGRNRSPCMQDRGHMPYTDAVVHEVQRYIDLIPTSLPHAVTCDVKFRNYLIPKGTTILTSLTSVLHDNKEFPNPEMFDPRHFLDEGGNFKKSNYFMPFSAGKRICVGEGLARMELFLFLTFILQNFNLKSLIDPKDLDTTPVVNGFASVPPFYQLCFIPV

Substance: 2-Methyl-1-[(4-[6-(trifluoromethyl)pyridin-2-yl]-6-{[2-(trifluoromethyl)pyridin-4-yl]amino}-1,3,5-triazin-2-yl)amino]propan-2-ol methanesulfonate [compound 1]
- contribution of CYPs 1A2, 2C8, 2C9, 3A4 and UGTs 1A1, 1A3, 2B7, 2B15 to metabolism [1]: at low levels
- Response (Cycle) ([2]; Table 4, Cohort 1, 30 mg orally twice daily, per AML patient): CRp
- Response (Cycle) ([2]; Table 4, Cohort 2, 50 mg orally twice daily, per AML patient): CRp
- Response (Cycle) ([2]; Table 7, Cohort 1, 30 mg orally twice daily, per patient): CRp
- Response (Cycle) ([2]; Table 7, Cohort 2, 50 mg orally twice daily, per patient): Cri
- Response (Cycle) ([2]; Table 7, Cohort 5, 100 mg orally twice daily, per patient): CRp
- neutrophil counts ([2]; by cycle 1 day 15): increase
- white blood cell counts and neutrophil counts ([2]; by cycle 2 day 15 in patients with a response): in normal range
- patients with progressive disease ([2]; of a total 35 patients): 6
- patients with stable disease ([2]; of a total 35 patients): 5
- GM-CSF independent growth (TF-1 IDH2 (R140Q) cells): reversed
- mean inhibition of 2HG, no adjustment for subjects without IDH-2 mutated disease (IDH2 R140Q; C1D15 and C2D1, 18 patients with IDH2 R140Q mutations): up to 97%
- mean inhibition of 2-HG (adjusted) (IDH2 R140Q; Cohort 1 of Table 7 (30 mg twice daily), C1D15, 4 patients): 88%
- mean inhibition of 2-HG (adjusted) (IDH2 R140Q; Cohort 2 of Table 4 (50 mg twice daily), C1D15, 2 patients): 98%
- mean inhibition of 2-HG (adjusted) (IDH2 R140Q; cohort 1 of Table 4 (30 mg twice daily), C1D15, 3 patients): 86%
- mean inhibition of 2-HG (adjusted) (IDH2 R140Q; cohort 1 of Table 4 (30 mg twice daily), C2D1, 1 patient): 95%
- mean inhibition of 2-HG (adjusted) (IDH2 R140Q; cohort 1 of Table 7 (30 mg twice daily), C2D1, 2 patients): 97%
- mean inhibition of 2-HG (adjusted) (IDH2 R140Q; cohort 2 of Table 4 (50 mg twice daily), C2D1, 4 patients): 100%
- mean inhibition of 2-HG (adjusted) (IDH2 R140Q; cohort 2 of Table 7 (50 mg twice daily), C1D15, 3 patients): 99%
- mean inhibition of 2-HG (adjusted) (IDH2 R140Q; cohort 2 of Table 7 (50 mg twice daily), C2D1, 4 patients): 100%
- mean inhibition of 2-HG (adjusted) (IDH2 R140Q; cohort 3 of Table 7 (75 mg twice daily), C1D15, 3 patients): 103%
- mean inhibition of 2-HG (adjusted) (IDH2 R140Q; cohort 3 of Table 7 (75 mg twice daily), C2D1, 3 patients): 81%
- mean inhibition of 2-HG (adjusted) (IDH2 R140Q; cohort 4 of Table 7 (100 mg once daily), C1D15, 3 patients): 102%
- mean inhibition of 2-HG (adjusted) (IDH2 R140Q; cohort 4 of Table 7 (100 mg once daily), C2D1, 2 patients): 101%
- EPO-induced expression of hemoglobin gamma ½ and Kruppel-like factor 1 (KLF-1) [3]: restores
- Survival at study termination ([4]; 5 mg/kg PO/BID): 4/9
- Survival at study termination ([4]; 15 mg/kg PO/BID): 6/9
- Survival at study termination ([4]; 45 mg/kg PO/BID): 9/9
- IC50 (UGT1A1; *1/*1 genotype): 1.9 µM
- IC50 (UGT1A1; *1/*28 genotype): 3.5 µM
- IC50 (UGT1A1; *28/*28 genotype): 10 µM
- time-dependent or metabolism-dependent inhibition of CYP enzymes (CYP enzymes): Neither compound shows time-dependent or metabolism-dependent inhibition
- population of more differentiated cells (metamyelocytes) ([5]; 9 days ex vivo): clear increase
- percentage of blast cells ([5]; by Day 6): 55%
- percentage of blast cells ([5]; by Day 9): 40%
- EAUC90[0-12 hr], AUC0-12 hr for sustained 90% tumor 2-HG inhibition (U87MG IDH2 (R140Q) tumor; estimated): approximately 5000 hr·ng/mL
- EAUC97[0-12 h], AUC0-12 hr for sustained 97% tumor 2-HG inhibition (U87MG IDH2 (R140Q) tumor; estimated): ~15200 ng·h/mL
- tumor 2-HG concentration (U87MG IDH2 (R140Q) tumor; following a single oral dose): decreases rapidly
- induction of human CYP3A4 (human CYP3A4): weak inducers
- victim of strong CYP3A4 inducers such as rifampicin (human CYP3A4; used as a marker substrate): neither compound appears to be a victim
- IC50 (CYP2C19): 6.3 µM
- histone hypermethylation induced by IDH2 (R140Q) [6]: reversed
